# Assay results: US8063034B2, “Oxadiazole derivatives and thiadiazole derivatives having neovascularization inhibitory activity” (Santen Pharmaceutical Co., Ltd., priority 2007, dated 2011)
# Counter-ions that a name gives are not always drawn.
# Biological target: T1, tyrosine kinase (KDR) (Homo sapiens, UniProt P35968)
# T1 construct: purchased CARNABIO SCIENCE Co. Ltd. JAPAN
# Experiment: Evaluation test of inhibitory effect of tyrosine kinase (KDR) activity, ELISA method (CARNABIO SCIENCE kit)
# Assay type: biochemical
# Details: 4 mg/L test compound, 1 μM ATP, substrate 250 nM, 1 hour at room temperature, absorbance 450 nm; read-out: tyrosine kinase inhibition rates (% inhibition)
# Description: In order to find usefulness of the present compounds, a test of inhibitory effect of tyrosine kinase (KDR) activity was conducted on the present compounds using an evaluation system for kinase (KDR) inhibitory activity by way of the ELISA method which is the method for evaluating neovascularization inhibition effect of drugs, and the neovascularization inhibition effects were evaluated.
# Evaluation Test of Inhibitory Effect of Tyrosine Kinase (KDR) Activity
# As one of the widely-used methods of evaluating inhibitory effect of tyrosine kinase (KDR) activity by drugs, the ELISA method has been reported. The inhibitory effect of tyrosine kinase (KDR) activity of each of the present compounds was evaluated using the commercially available kit (purchased from CARNABIO SCIENCE Co. Ltd. JAPAN) for evaluating inhibitory effect of tyrosine kinase (KDR) activity.
# (Preparation of Test Compound Solution)
# Each test compound (2 mg) were dissolved in dimethyl sulfoxide (hereinafter abbreviated as DMSO), and the 2 mg/ml stock solution were prepared. Each obtained solution was diluted with 8 μL of DMSO. Each solution (0.4 mg/ml compound) was diluted 25 times with assay buffer to give the test compound solution. For the vehicle, 4% DMSO-Assay Buffer solution was prepared.
# (Preparation of ATP/Substrate Solution)
# Thaw commercially available ATP/Substrate (purchased from CARNABIO SCIENCE Co. Ltd. JAPAN), then 250 μL of it was added to 1 mL of assay buffer to give ATP/substrate solution. ATP/substrate solution was kept on ice before use.
# (Preparation of Enzyme Solution)
# 7 μL of commercially available tyrosine kinase (purchased from CARNABIO SCIENCE Co. Ltd. JAPAN) was added to 2.793 mL of assay buffer to give enzyme solution. Enzyme solution was kept on ice before use.
# (Preparation of Blocking Buffer)
# BSA (Sigma, A-7030) was dissolved with wash buffer (50 mM Tris-HCl (pH7.5), 150 mM NaCl, 0.2% Tween-20) to give x100 BSA solution, and the solution was kept at −80° C. Thaw 400 μL of x100 BSA solution before use, it was added to 40 mL of wash buffer to give blocking buffer.
# (Preparation of Detection Mixture)
# 40 μL of commercially available HRP-conjugated antibody (purchased from CARNABIO SCIENCE Co. Ltd. JAPAN) was added to 12 mL of blocking buffer to give detection mixture.
# (Method of Test and Method of Measurement)
# 1) Add 10 μL of each test compound solution, 10 μL of ATP/substrate solution and 20 μL of enzyme solution to each well of ELISA plate (streptavidin-coated 96-well plate, PerkinElmer, 4009-0010). Incubate for 1 hour at room temperature (4 mg/L test compound solution, 15 mM Tris-HCl (pH7.5), 0.01% Tween 20, 2 mM DTT, concentration of substrate: 250 nM, 1 μM ATP, 5 mM Mg). For the vehicle, the above mentioned 4% DMSO-assay buffer solution was added instead of test compound solution.
# 2) Aspirate each well and wash with wash buffer, repeating the process three times for four washes.
# 3) Add 200 μL of blocking buffer to each well and cover the plate and incubate for 30 minutes.
# 4) Aspirate each well, add 100 μL of detection mixture to each well and incubate the plate for 30 minutes.
# 5) Aspirate each well and wash with wash buffer 4 times.
# 6) Add 100 μL of color reagent to each well. Incubate for 5 minutes and then add 0.1 M H2SO4 to each well.
# 7) Measure the absorbance of each well, using a plate reader set to […].
# (Calculation of Kinase Inhibition Rate)
# Rate of the reaction positive control well with kinase was considered 0% inhibition, rate of the reaction negative control well with assay buffer instead of kinase was considered 100% inhibition, and so the inhibition rates of test compound well were calculated based on the absorbance of them.
# A: Absorbance of the reaction positive control well
# B: Absorbance of the reaction negative control well
# C: Absorbance of the test compound well
# tyrosine kinase inhibition rates (%)=100 [1-(C-A)/(B-A)]
# T1 sequence (P35968 790-1356 limits assumed): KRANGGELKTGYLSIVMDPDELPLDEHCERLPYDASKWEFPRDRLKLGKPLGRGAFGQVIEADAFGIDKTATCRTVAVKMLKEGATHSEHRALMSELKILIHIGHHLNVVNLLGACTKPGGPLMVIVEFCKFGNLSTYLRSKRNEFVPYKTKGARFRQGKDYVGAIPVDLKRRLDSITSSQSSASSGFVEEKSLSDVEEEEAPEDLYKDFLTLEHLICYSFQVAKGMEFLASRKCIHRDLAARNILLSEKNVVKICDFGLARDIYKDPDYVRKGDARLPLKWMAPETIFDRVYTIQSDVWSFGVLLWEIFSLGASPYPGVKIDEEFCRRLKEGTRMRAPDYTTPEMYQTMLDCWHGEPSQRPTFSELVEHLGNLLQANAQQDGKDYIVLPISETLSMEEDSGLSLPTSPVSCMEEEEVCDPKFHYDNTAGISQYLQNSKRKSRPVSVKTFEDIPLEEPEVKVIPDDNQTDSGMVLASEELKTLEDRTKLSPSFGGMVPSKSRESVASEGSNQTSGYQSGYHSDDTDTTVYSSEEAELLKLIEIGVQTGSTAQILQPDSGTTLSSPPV
row,inhibition at 4 µg/mL,SMILES
1,98%,"Nc1cc(CSc2ncccc2-c2nnc(Nc3cccc(C(F)(F)F)c3)o2)ccn1 [Compound 1-92, 5-(2-(2-Aminopyridin-4-yl)methylthiopyridin-3-yl)-N-(3-trifluoromethylphenyl)-1,3,4-oxadiazol-2-amine hydrochloride]"
2,82%,"Clc1ccc(Nc2nnc(-c3ccccc3SCc3ccncc3)o2)cc1 [Compound 1-41, N-(4-Chlorophenyl)-5-(2-(pyridin-4-yl)methylthiophenyl)-1,3,4-oxadiazol-2-amine]"
3,53%,"FC(F)(F)c1ccc(Nc2nnc(-c3ccccc3SCc3ccncc3)s2)cc1 [Compound 1-38, 5-(2-(Pyridin-4-yl)methylthiophenyl)-N-(4-trifluoromethylphenyl)-1,3,4-thiadiazole-2-amine]"
4,84%,"Clc1cccc(Nc2nnc(-c3ccccc3SCc3ccncc3)s2)c1 [Compound 1-37, N-(3-Chlorophenyl)-5-(2-(pyridin-4-yl)methylthiophenyl)-1,3,4-thiadiazol-2-amine]"
5,91%,CC(=O)Nc1cc(CSc2ccccc2-c2nnc(Nc3ccc(Cl)cc3)o2)ccn1 [Compound 1-45]
6,98%,"CC(=O)Nc1cc(CSc2ccccc2-c2nnc(Nc3cccc(C(F)(F)F)c3)o2)ccn1 [Compound 1-46, 5-(2-(2-Acetamidopyridin-4-yl)methylthiophenyl)-N-(3-trifluoromethylphenyl)-1,3,4-oxadiazol-2-amine]"
7,43%,"CC(C)(C)c1ccc(Nc2nnc(-c3ccccc3SCc3ccncc3)s2)cc1 [Compound 1-39, N-(4-t-Butylphenyl)-5-(2-(pyridin-4-yl)methylthiophenyl)-1,3,4-thiadiazol-2-amine]"
8,75%,"Nc1nccc(CSc2ccccc2-c2nnc(Nc3ccccc3)o2)n1 [Compound 1-47, 5-(2-(2-Aminopyrimidin-4-yl)methylthiophenyl)-N-phenyl-1,3,4-oxadiazol-2-amine]"
9,86%,"Nc1cc(CSc2ncccc2-c2nnc(Nc3ccc(Cl)cc3)o2)ccn1 [Compound 1-91, 5-(2-(2-Aminopyridin-4-yl)methylthiopyridin-3-yl)-N-(4-chlorophenyl)-1,3,4-oxadiazol-2-amine hydrochloride]"
10,88%,"c1ccc(Nc2nnc(-c3ccccc3SCc3ccnc4ccccc34)o2)cc1 [Compound 1-40, N-Phenyl-5-(2-(quinolin-4-yl)methylthiophenyl)-1,3,4-oxadiazol-2-amine]"

# Second part, the compound before the results:
row,SMILES,inhibition at 4 µg/mL
1,"Clc1ccc(Nc2nnc(-c3cccnc3SCc3ccnc4ccccc34)o2)cc1 [Compound 1-14, N-(4-Chlorophenyl)-5-(2-(quinolin-4-yl)methylthiopyridin-3-yl)-1,3,4-oxadiazol-2-amine]",90%
2,"CC(C)(C)OC(=O)Nc1cc(CSc2ncccc2-c2nnc(Nc3ccccc3)o2)ccn1 [Compound 1-7, 5-(2-(2-t-Butoxycarbonylaminopyridin-4-yl)methylthiopyridin-3-yl)-N-phenyl-1,3,4-oxadiazol-2-amine]",60%
3,"Clc1ccc(Nc2nnc(-c3ccccc3SCc3ccncc3)s2)cc1 [Compound 1-36, N-(4-Chlorophenyl)-5-(2-(pyridin-4-yl)methylthiophenyl)-1,3,4-thiadiazol-2-amine]",68%
4,"CC(=O)Nc1cc(COc2ccccc2-c2nnc(Nc3ccccc3)o2)ccn1 [Compound 1-6, 5-(2-(2-Acetamidopyridin-4-yl)methoxyphenyl)-N-phenyl-1,3,4-oxadiazol-2-amine]",65%
5,"CC(=O)Nc1cc(CSc2ncccc2-c2nnc(Nc3cccc(C(F)(F)F)c3)o2)ccn1 [Compound 1-18, 5-(2-(2-Acetamidopyridin-4-yl)methylthiopyridin-3-yl)-N-(3-trifluoromethylphenyl)-1,3,4-oxadiazol-2-amine]",99%
6,"CNC(=O)c1cc(CSc2ncccc2-c2nnc(Nc3ccc(Cl)cc3)o2)ccn1 [Compound 1-20, N-(4-Chlorophenyl)-5-(2-(2-methylaminocarbonylpyridin-4-yl)methylthiopyridin-3-yl)-1,3,4-oxadiazol-2-amine]",86%
7,"FC(F)(F)c1cccc(Nc2nnc(-c3ccccc3SCc3ccncc3)o2)c1 [Compound 1-33, 5-(2-(Pyridin-4-yl)methylthiophenyl)-N-(3-trifluoromethylphenyl)-1,3,4-oxadiazol-2-amine]",95%
8,"CNC(=O)c1cc(CSc2ncccc2-c2nnc(Nc3cccc(C(F)(F)F)c3)o2)ccn1 [Compound 1-21, 5-(2-(2-Methylaminocarbonylpyridin-4-yl)methylthiopyridin-3-yl)-N-(3-trifluoromethylphenyl)-1,3,4-oxadiazol-2-amine]",93%
9,"CC(C)(C)c1ccc(Nc2nnc(-c3ccccc3SCc3ccncc3)o2)cc1 [Compound 1-34, N-(4-t-Butylphenyl)-5-(2-(pyridin-4-yl)methylthiophenyl)-1,3,4-oxadiazol-2-amine]",86%
10,"c1ccc(Nc2nnc(-c3ccccc3OCc3ccncc3)o2)cc1 [Compound 1-1, N-Phenyl-5-(2-(pyridin-4-yl)methoxyphenyl)-1,3,4-oxadiazol-2-amine]",55%
11,"c1ccc(Nc2nnc(-c3ccccc3OCc3ccnc4ccccc34)o2)cc1 [Compound 1-4, N-Phenyl-5-(2-(quinolin-4-yl)methoxyphenyl)-1,3,4-oxadiazol-2-amine]",75%
12,"FC(F)(F)c1cccc(Nc2nnc(-c3ccccc3OCc3ccncc3)o2)c1 [Compound 1-3, 5-(2-(Pyridin-4-yl)methoxyphenyl)-N-(3-trifluoromethylphenyl)-1,3,4-oxadiazol-2-amine]",80%
13,"c1ccc(Nc2nnc(-c3cccnc3SCc3ccncc3)o2)cc1 [Compound 1-10, N-Phenyl-5-(2-(pyridin-4-yl)methylthiopyridin-3-yl)-1,3,4-oxadiazol-2-amine]",76%
14,"c1ccc(Nc2nnc(-c3cccnc3SCc3ccnc4ccccc34)o2)cc1 [Compound 1-13, N-Phenyl-5-(2-(quinolin-4-yl)methylthiopyridin-3-yl)-1,3,4-oxadiazol-2-amine]",72%
15,"CC(=O)Nc1cc(CSc2ncccc2-c2nnc(Nc3ccc(Cl)cc3)o2)ccn1 [Compound 1-17, 5-(2-(2-Acetamidopyridin-4-yl)methylthiopyridin-3-yl)-N-(4-chlorophenyl)-1,3,4-oxadiazol-2-amine]",94%
16,"c1ccc(Nc2nnc(-c3ccccc3SCc3ccncc3)s2)cc1 [Compound 1-35, N-Phenyl-5-(2-(pyridin-4-yl)methylthiophenyl)-1,3,4-thiadiazol-2-amine]",58%
17,"CC(=O)Nc1cc(CSc2ncccc2-c2nnc(Nc3ccccc3)o2)ccn1 [Compound 1-16, 5-(2-(2-Acetamidopyridin-4-yl)methylthiopyridin-3-yl)-N-phenyl-1,3,4-oxadiazol-2-amine]",95%
18,"c1ccc(Nc2nnc(-c3ccccc3SCc3ccncc3)o2)cc1 [Compound 1-32, N-Phenyl-5-(2-(pyridin-4-yl)methylthiophenyl)-1,3,4-oxadiazol-2-amine]",55%
